# Results as given in patent publication US20220168384A1, “Anti-Bacterial Combination Therapy” (McMaster University, priority 2019, published 2022).
# “Also recorded” adds a separate entry of the source.
# Key:
# [1] = Qualitative assay for antibiotic-Fe3+ coloured complexes; assay type: physicochemical; conditions: stock antibiotic + FeCl3 final 10 μM; room temperature 1 h
# Protocol: […]. Binding of iron by a compound causes spectral shifts that can detected visually. Five μL of stock concentration antibiotic was added to 5 μL of FeCl3 to a final FeCl3 concentration of 10 μM and incubated at room temperature for one hour. Negative controls without iron are indicated by a negative sign and droplets with FeCl3 are indicated with a positive sign; vehicle controls with Milli-Q H2O and DMSO were included.
# Compounds were arrayed in Nunc 96 microwell plates. Vehicle controls contained Milli-Q H2O with 1:75 dilution of each compound at a final concentration of […]. The experimental set-up contained the same components as the vehicle control, with the addition of […] FeCl3. The final volume in each well was 150 μL. The plate was incubated at room temperature for one hour and absorption spectra from 300 nm to 700 nm was read in 2 nm increments (Multiskan Go—Thermo Fisher Scientific). […]
# [2] = UV-Vis absorption spectra assay for iron chelation; assay type: physicochemical; conditions: 300 μM compound and FeCl3; 300-700 nm; 1 h
# Protocol: Equimolar concentrations of compound and FeCl3 were added in deionized H2O to a final concentration of 300 μM and a spectrum of wavelengths from 300 nm to 700 nm read after 1 h incubation at room temperature. The black dashed line is the spectrum of the compound in the absence of iron. The black solid line is the spectrum after the addition of iron. […] Chloramphenicol and ampicillin were used as negative controls. Each assay was performed at least 3 times and averaged values are shown.
# Compounds were arrayed in Nunc 96 microwell plates. Vehicle controls contained Milli-Q H2O with 1:75 dilution of each compound at a final concentration of […]. The experimental set-up contained the same components as the vehicle control, with the addition of […] FeCl3. The final volume in each well was 150 μL. The plate was incubated at room temperature for one hour and absorption spectra from 300 nm to 700 nm was read in 2 nm increments (Multiskan Go—Thermo Fisher Scientific).
# P. aeruginosa PAO1 = assay: Checkerboard assays of TS with DFP, DSX or 10% serum; assay type: cell-based, Pseudomonas aeruginosa; conditions: 10:90
# Protocol: Human serum (Corning) and mouse serum (Equitech-Bio) were stored at −20° C. Sera were aliquoted into 5-ml culture tubes by thawing once at 37° C. for 30 min with occasional gentle mixing. Culture tubes were frozen at −20° C. until use. To make 10% serum solutions, serum was thawed for 10 min at 37° C. and then heat inactivated at 57° C. for 30 min. Two milliliters of heat-inactivated serum were added to 18 ml of 10:90 medium and gently mixed. This 10% serum solution was used for checkerboard assays.
# (§1) Checkerboard assays were set-up using Nunc 96-well plates in an 8-well by 8-well format. Two columns were allocated for vehicle controls and two columns for sterility controls. Vehicle controls contained 2 μL DMSO plus 2 μL DFP solvent for checkerboards with TS and DFP or 4 μL DMSO for TS and DSX, in 146 μL of 10:90 medium or 10% serum inoculated with PA14 or PAO1-KP as described in Growth Curves. Sterile controls contained the same components in 10:90 medium or 10% serum, without cells. Serial dilutions of TS—with 17 μg/mL being the highest final concentration—were added along the y axis of the checkerboard (increasing concentration from bottom to top) whereas serial dilutions of DFP or DSX—with 512 μg/mL being the highest final concentration—were added along the x axis (increasing concentration from left to right). The final volume of each well was 150 μL and each checkerboard was repeated at least three times. Plates were incubated and the final OD600 determined as detailed above.
# P. aeruginosa PA14 [3] = assay: Dose response and checkerboard assays against PA14; assay type: cell-based, Pseudomonas aeruginosa; conditions: PA14; for interaction with DSX: 2D checkerboard; for one-eighth of MIC against PA14 (test concentration): Pseudomonas aeruginosa, concentration used in clinical isolate testing, read-out: ⅛^th the MIC of PA14; for effect of 100 μM Fe^3+ on inhibitory activity: VAN + compound checkerboards; for synergy with TS: IC50 isobolograms, 10:90; for relative potency of synergy with TS: checkerboards, isobolograms and CI values
# Protocol: as §1
# Culture conditions, growth assays, dose response and checkerboard assays using P. aeruginosa PA14 were performed as described in Example 1. Briefly, overnight cultures were grown in LB for 16 h, 37° C., 200 rpm then subcultured (1:500 dilution) into 10:90 for 6 h. Subcultures were standardized to OD600 of 0.10 and diluted 1:500 in fresh 10:90 before use. For the dose response assay, serial dilutions of compounds were added at 75 times the final concentration and diluted with 10:90 with cells to reach the desired final concentration. This was done in triplicate for technical replicates. Vehicle and sterile controls were included. The checkerboard assay was done similarly to the dose response assay but in an 8×8 format in a 96-well Nunc plate, with concentration of one drug increasing along the y-axis and the other along the x-axis. Sterility and vehicle controls were included with two columns allocated for each control. At least three biological replicates were repeated for the dose response and checkerboard assays.
# P. aeruginosa PA14 [4] = assay: Checkerboards pinned to LB agar (bactericidal activity); assay type: cell-based, Pseudomonas aeruginosa; conditions: overnight 37° C.
# Protocol: Checkerboards were pinned to LB agar plates using a sterile 96 pin tool. Plates were incubated overnight at 37° C. Independent experiments were conducted 3 times and a representative plate is shown.
# [5] = system: P. aeruginosa clinical isolates; assay: Clinical isolates testing, P. aeruginosa; assay type: cell-based, Pseudomonas aeruginosa
# Protocol: (§2) Clinical isolates of P. aeruginosa and A. baumannii were inoculated from −80° C. stocks into 200 μL LB broth and grown with shaking at 200 rpm, 16 h, 37° C. in Nunc 96-well plates. The overnight cultures were subcultured (1:25 dilution) into 10:90 and grown with shaking at 200 rpm, 2 h, 37° C. Vehicle controls consisted of 4 μL of DMSO, 144 μL 10:90 and 2 μL of subculture. Sterile controls consisted of 4 μL of DMSO and 146 μL 10:90. […]. The final volume of each well was 150 μL and each checkerboard was repeated at least three times. Plates were incubated with shaking at 200 rpm, 16 h, 37° C. and OD600 was measured (Multiskan Go—Thermo Fisher Scientific). The results were plotted as percent of control (wells containing only DMSO) using Prism (GraphPad).
# (§3) Clinical isolates were grown and tested as described in Example 1. Briefly, clinical isolates were inoculated from glycerol stocks stored at −80° C. into Nunc 96-well plates and grown overnight at 37° C., for 16 h with shaking in LB (200 rpm). Overnights were subcultured (1:25) into fresh 10:90 medium and grown for 2 h under the same growth conditions. Subcultures were diluted 1:75 in fresh 10:90. Compounds were diluted 1:75 to obtain the final concentration. DOXY and CLI were added at a final concentration of 1 μg/mL, CO was used at 2 μg/mL, TRO was used at 4 μg/mL, TS was used at 8.3 μg/mL, and DSX was used at 32 μg/mL. Vehicle and sterility controls were included. Plates were incubated overnight with the same conditions. The OD600 was read (Multiscan Go—Thermo Fisher Scientific), analyzed using Excel, and the data plotted using Prism (GraphPad).
# (§4) Culture conditions, checkerboard assays using P. aeruginosa PA14 and dose-response assays were performed as described in Example 1. In addition to TS, other thiopeptides tested were siomycin A (SM), thiocillin I (TC), micrococcin P1 (MC), nosiheptide (NH), berninamycin A (BER), and geninthiocin A (GEN). For dose response assays of the combinations conducted in 10:90, DSX concentration was constant at 64 μg/mL.
# [6] = Chrome azurol S (CAS) plate assay; assay type: physicochemical; conditions: 10 μL of 2 mg/mL; room temperature 1 h
# [7] = system: Acinetobacter baumannii clinical isolates; assay: Clinical isolates testing, A. baumannii; assay type: cell-based; conditions: 10:90
# Protocol: as §2, §3, §4
# [8] = aqueous media
colour change upon addition of FeCl3 [1],one-eighth of MIC against PA14 (test concentration) (P. aeruginosa PA14 [3]) [µg/mL],decolourization of CAS agar (relative affinity for iron) [6],concentrations at which the compound precipitated [8],SMILES,absorption spectrum after addition of FeCl3 [2],effect of chelator on TS activity (P. aeruginosa PAO1; checkerboard with TS),"activity of chelator on its own against P. aeruginosa (P. aeruginosa PAO1; checkerboard, up to 512 μg/ml)",interaction with DSX (P. aeruginosa PA14 [3]),effect of 100 μM Fe^3+ on inhibitory activity (P. aeruginosa PA14 [3]),synergy with TS (P. aeruginosa PA14 [3]; checkerboard),interaction with GN (P. aeruginosa PA14 [3]; checkerboard),relative potency of synergy with TS (P. aeruginosa PA14 [3]),mode of activity of compound alone (P. aeruginosa PA14 [4]),"growth of C0379, triple combinations with TS+DSX at higher concentrations of the compound ([5]; TS 8.3 and DSX 32 μg/mL)",susceptibility of A. baumannii strain C0286 [7],growth of C0379 with CLI at 8 μg/mL ([5]; TS 8.3 and DSX 32 μg/mL where combined)
dark red/violet,,,,"Cc1c(O)c(=O)ccn1C [DFP, deferiprone]",shifted,potentiated TS activity,neither chelator had activity,,,,,,,,,
,2,greatest decolourization,,"Cc1cc(C2CCCCC2)n(O)c(=O)c1 [CO, Ciclopirox Olamine]",showed shifts in their absorption spectra,,,indifferent,abrogated,synergized,antagonism,most potent synergy; also recorded: greater synergy,bacteriostatic,could inhibit its growth,,
,1,Decolourization was not observed,above 8 μg/mL,"Oc1c(I)cc(Cl)c2cccnc12 [CLI, Clioquinol]",,,,antagonism,abrogated,synergized,,most potent synergy,bacteriostatic,,susceptible,did not reduce growth below MIC
